Test results taken from PubChem BioAssay AID2060495 (Molecular Pharmacology Branch, DTP, NCI, 2025).

System: 521955-158-R2-J5-PDC complex spheroid viability
Experiment: Anticancer human tumor 521955-158-R2-J5-PDC patient-derived pancreatic carcinoma cell line growth inhibition [GQUAD]
Conditions: for IC50: curve of first compound; for viability, T/C: stronger effect = lower value
Method in brief: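 Multi-cell-type spheroids of tumor cells with HUVEC and mesenchymal stem cells, treated with drug combinations. Concentrations descend in half-log steps from near clinical Cmax, or from 10 microM where Cmax is unknown; viability read-out.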

[1] = second compound 0.0316 µM, first compound 0.0316 µM
[2] = second compound 0.0316 µM, first compound 0.1 µM
[3] = second compound 0.0316 µM, first compound 0.316 µM
[4] = second compound 0.0316 µM, first compound 1 µM
[5] = second compound 0.0316 µM, first compound 3.16 µM
[6] = second compound 0.0316 µM, first compound 10 µM
[7] = second compound 0.1 µM, first compound 0.0316 µM
[8] = second compound 0.1 µM, first compound 0.1 µM
[9] = second compound 0.1 µM, first compound 0.316 µM
[10] = second compound 0.1 µM, first compound 1 µM
[11] = second compound 0.1 µM, first compound 3.16 µM
[12] = second compound 0.1 µM, first compound 10 µM
[13] = second compound 0.316 µM, first compound 0.0316 µM
[14] = second compound 0.316 µM, first compound 0.1 µM
[15] = second compound 0.316 µM, first compound 0.316 µM
[16] = second compound 0.316 µM, first compound 1 µM
[17] = second compound 0.316 µM, first compound 3.16 µM
[18] = second compound 0.316 µM, first compound 10 µM
[19] = second compound 1 µM, first compound 0.0316 µM
[20] = second compound 1 µM, first compound 0.1 µM
[21] = second compound 1 µM, first compound 0.316 µM
[22] = second compound 1 µM, first compound 1 µM
[23] = second compound 1 µM, first compound 3.16 µM
[24] = second compound 1 µM, first compound 10 µM
[25] = second compound 3.16 µM, first compound 0.0316 µM
[26] = second compound 3.16 µM, first compound 0.1 µM
[27] = second compound 3.16 µM, first compound 0.316 µM
[28] = second compound 3.16 µM, first compound 1 µM
[29] = second compound 3.16 µM, first compound 3.16 µM
[30] = second compound 3.16 µM, first compound 10 µM
[31] = second compound 10 µM, first compound 0.0316 µM
[32] = second compound 10 µM, first compound 0.1 µM
[33] = second compound 10 µM, first compound 0.316 µM
[34] = second compound 10 µM, first compound 1 µM
[35] = second compound 10 µM, first compound 3.16 µM
[36] = second compound 10 µM, first compound 10 µM
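Note: spheroids exposed to agents for one week before reading.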
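Throughout, for viability, T/C: 100% = DMSO vehicle control viability.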

Nc1ccn(C2OC(CO)C(O)C2(F)F)c(=O)n1 (centres undefined) + CN(C)c1ccc(Nc2c3ccc(NC(=O)CCN4CCCC4)cc3nc3cc(NC(=O)CCN4CCCC4)ccc23)cc1
IC50 (second compound 0.0316 µM): 774 nM | IC50 (second compound 0.1 µM): 423 nM | IC50 (second compound 0.316 µM): 434 nM | IC50 (second compound 1 µM): 394 nM | IC50 (second compound 3.16 µM): 157 nM | IC50 (second compound 10 µM): 83 nM | viability, T/C [1]: 76.5% | viability, T/C [2]: 73.5% | viability, T/C [3]: 66% | viability, T/C [4]: 45.1% | viability, T/C [5]: 24.1% | viability, T/C [6]: 12.6% | viability, T/C [7]: 76.6% | viability, T/C [8]: 76.5% | viability, T/C [9]: 54.5% | viability, T/C [10]: 32.3% | viability, T/C [11]: 19.5% | viability, T/C [12]: 14.7% | viability, T/C [13]: 65.2% | viability, T/C [14]: 66.7% | viability, T/C [15]: 56.9% | viability, T/C [16]: 31.1% | viability, T/C [17]: 17.1% | viability, T/C [18]: 14.2% | viability, T/C [19]: 71.7% | viability, T/C [20]: 58.7% | viability, T/C [21]: 57.1% | viability, T/C [22]: 25.9% | viability, T/C [23]: 12.5% | viability, T/C [24]: 12% | viability, T/C [25]: 61.6% | viability, T/C [26]: 52.8% | viability, T/C [27]: 43.2% | viability, T/C [28]: 22.4% | viability, T/C [29]: 12.5% | viability, T/C [30]: 11.9% | viability, T/C [31]: 64.8% | viability, T/C [32]: 39.9% | viability, T/C [33]: 41.1% | viability, T/C [34]: 27% | viability, T/C [35]: 17.2% | viability, T/C [36]: 11.6%

O=c1[nH]cc(F)c(=O)[nH]1 + CN(C)c1ccc(Nc2c3ccc(NC(=O)CCN4CCCC4)cc3nc3cc(NC(=O)CCN4CCCC4)ccc23)cc1
IC50 (second compound 0.0316 µM): > 10000 nM | IC50 (second compound 0.1 µM): > 10000 nM | IC50 (second compound 0.316 µM): > 10000 nM | IC50 (second compound 1 µM): > 10000 nM | IC50 (second compound 3.16 µM): > 10000 nM | IC50 (second compound 10 µM): > 10000 nM | viability, T/C [1]: 103% | viability, T/C [2]: 112% | viability, T/C [3]: 97.8% | viability, T/C [4]: 105% | viability, T/C [5]: 109% | viability, T/C [6]: 51.5% | viability, T/C [7]: 91.3% | viability, T/C [8]: 88.9% | viability, T/C [9]: 95.9% | viability, T/C [10]: 93.4% | viability, T/C [11]: 95% | viability, T/C [12]: 56.1% | viability, T/C [13]: 91.3% | viability, T/C [14]: 92.7% | viability, T/C [15]: 108% | viability, T/C [16]: 96.8% | viability, T/C [17]: 94.4% | viability, T/C [18]: 58.5% | viability, T/C [19]: 80.9% | viability, T/C [20]: 82.8% | viability, T/C [21]: 86.1% | viability, T/C [22]: 101% | viability, T/C [23]: 94.8% | viability, T/C [24]: 55.9% | viability, T/C [25]: 86.4% | viability, T/C [26]: 87.4% | viability, T/C [27]: 97.1% | viability, T/C [28]: 85% | viability, T/C [29]: 93.9% | viability, T/C [30]: 53.4% | viability, T/C [31]: 58.5% | viability, T/C [32]: 58.1% | viability, T/C [33]: 75.3% | viability, T/C [34]: 65.3% | viability, T/C [35]: 66.1% | viability, T/C [36]: 49.5%
